Earlier results, collected in patent publication US20260256858A1, “Amanita Muscaria Mushroom Extracts and Products, and Improved Processes for Producing Extracts of Amanita Muscaria Mushrooms at Kilogram Scale” (priority 2023, published 2026).

Tests used:
[1] = after ingestion of Amanita mushrooms
[2] = IV injection, 8 μmol/kg, 150 g rat

Compound	detection in urine after ingestion [1]	brain regions with the highest muscimol concentration (IV injection of 3H-muscimol, 8 μmol/kg, rat)	amount of the dose injected that crossed to the brain [2]	muscimol concentration in brain [2]	time until blood concentration was below limits of detection (after intravenous injection, rat) [min]	distribution in corneum stratum compared to hypothalamus, hippocampus and cortex (intracerebroventricular injection, 1200 nmol/kg, rat)	tolerability (adverse effects or toxicity) (intravenous injection of muscimol, 8 μmol/kg, rat)
NCc1cc(=O)[nH]o1 [muscimol, 5-(aminomethyl)-1,2-oxazol-3 (2H)-one]	detected within an hour after ingestion	the substantia nigra, the colliculi and the hypothalamus	approximately 0.02%	approximately 200 pmol/g tissue	≤ 180	approximately 2 times higher	well-tolerated
N[C@H](C(=O)O)c1cc(=O)[nH]o1 [ibotenic acid, (S)-2-amino-2-(3-hydroxyisoxazol-5-yl) acetic acid]	detected within an hour after ingestion						
